Calls of active or inactive are those of the source. The calls are words filed in the database; no cut-off is given here.
Columns and labels:
A549/TR [1] = assay: Synergistic antiproliferative activity against human A549/Taxol cells assessed as increase in taxol by measuring combination index at 3.75 uM incubated for 72 hrs in presence of 1 uM taxol by MTT assay; format: functional
A549/TR [2] = assay: Downregulation of Vimentin expression level in human A549/Taxol cells at 2.5 to 10 uM incubated for 24 hrs by densitometry analysis; format: functional, cell-based; conditions: dose 2.5-10 µM
A549/TR [3] = assay: Synergistic antiproliferative activity against human A549/Taxol cells assessed as increase in taxol by measuring combination index at 30 uM incubated for 72 hrs in presence of 0.13 uM taxol by MTT assay; format: functional
Cytochrome P450 1A1 = target: T1, Cytochrome P450 1A1 (Homo sapiens, UniProt P04798); assay: Inhibition of recombinant human CYP1A1 using 7-ethyl-0-resorufin as substrate incubated for 30 mins in presence of NADPH by EROD assay
T1 sequence (P04798 whole entry): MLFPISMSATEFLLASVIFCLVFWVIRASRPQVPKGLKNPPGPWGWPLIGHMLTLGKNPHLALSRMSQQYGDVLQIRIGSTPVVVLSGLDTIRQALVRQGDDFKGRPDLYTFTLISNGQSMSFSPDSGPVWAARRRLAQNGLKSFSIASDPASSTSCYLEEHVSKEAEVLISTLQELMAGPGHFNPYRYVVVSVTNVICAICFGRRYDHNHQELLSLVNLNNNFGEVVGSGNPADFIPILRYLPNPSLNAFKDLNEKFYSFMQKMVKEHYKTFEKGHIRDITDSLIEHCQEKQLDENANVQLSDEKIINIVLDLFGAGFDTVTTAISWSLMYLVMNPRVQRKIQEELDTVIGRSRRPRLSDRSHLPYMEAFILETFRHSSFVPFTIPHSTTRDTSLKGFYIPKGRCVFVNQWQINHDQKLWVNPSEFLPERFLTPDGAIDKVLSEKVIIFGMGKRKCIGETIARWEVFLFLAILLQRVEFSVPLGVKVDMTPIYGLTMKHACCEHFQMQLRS

A549/TR [4] = assay: Synergistic antiproliferative activity against human A549/Taxol cells assessed as increase in taxol by measuring combination index at 7.50 uM incubated for 72 hrs in presence of 0.06 uM taxol by MTT assay; format: functional; conditions: dose 7.5 µM
A549/TR [5] = assay: Synergistic antiproliferative activity against human A549/Taxol cells assessed as increase in taxol by measuring combination index at 7.50 uM incubated for 72 hrs in presence of 0.25 uM taxol by MTT assay; format: functional; conditions: dose 7.5 µM
A549/TR [6] = assay: Synergistic antiproliferative activity against human A549/Taxol cells assessed as increase in taxol by measuring combination index at 15 uM incubated for 72 hrs in presence of 0.50 uM taxol by MTT assay; format: functional
A549/Taxol = assay: Inhibition of AKT pathway in human A549/Taxol cells assessed as decrease in phosphorylated AKT level at 2.5 to 5 uM incubated for 24 hrs; format: cell-based; conditions: dose 2.5-5 µM
A549 [7] = assay: Inhibition of DMBA induced taxol resistance in human A549 cells; format: functional, cell-based; conditions: dose 2.5-10 µM
A549/TR [8] = assay: Synergistic antiproliferative activity against human A549/Taxol cells assessed as increase in taxol by measuring combination index at 3.75 uM incubated for 72 hrs in presence of 0.13 uM taxol by MTT assay; format: functional
A549/TR [9] = assay: Synergistic antiproliferative activity against human A549/Taxol cells assessed as increase in taxol by measuring combination index at 30 uM incubated for 72 hrs in presence of 1 uM taxol by MTT assay; format: functional
Cytochrome P450 1B1 = target: T2, Cytochrome P450 1B1 (Homo sapiens, UniProt Q16678); assay: Inhibition of recombinant human CYP1B1 using 7-ethyl-0-resorufin as substrate incubated for 30 mins in presence of NADPH by EROD assay
T2 sequence (Q16678 whole entry): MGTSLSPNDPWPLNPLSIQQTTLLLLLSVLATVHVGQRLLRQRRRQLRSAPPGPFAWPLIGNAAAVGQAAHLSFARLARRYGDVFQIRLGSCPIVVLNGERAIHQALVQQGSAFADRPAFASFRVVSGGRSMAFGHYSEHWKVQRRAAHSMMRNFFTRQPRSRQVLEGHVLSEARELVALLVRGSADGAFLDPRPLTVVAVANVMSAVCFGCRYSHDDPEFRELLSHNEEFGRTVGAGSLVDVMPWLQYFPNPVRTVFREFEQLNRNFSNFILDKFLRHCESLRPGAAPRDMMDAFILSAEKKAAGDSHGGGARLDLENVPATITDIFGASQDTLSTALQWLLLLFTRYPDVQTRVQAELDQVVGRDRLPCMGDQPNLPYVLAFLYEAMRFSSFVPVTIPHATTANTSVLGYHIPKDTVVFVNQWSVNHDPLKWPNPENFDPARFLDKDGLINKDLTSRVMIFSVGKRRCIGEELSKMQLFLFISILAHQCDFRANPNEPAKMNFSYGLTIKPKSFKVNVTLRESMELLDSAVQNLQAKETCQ

NCI-H460 [10] = assay: Inhibition of DMBA-induced CYP1B1 overexpression in human NCI-H460 cells assessed as increase in Paxillin level incubated for 24 hrs by densitometry analysis; format: functional, cell-based; conditions: dose 5.0 µM
NCI-H460 [11] = assay: Antiproliferative activity against human taxol resistance human NCI-H460 cells assessed as reduction in cell viability incubated for 24 hrs by MTT assay; format: functional, cell-based; conditions: dose 5.0 µM
A549 [12] = assay: Inhibition of DMBA-induced CYP1B1 overexpression in human A549 cells assessed as increase in Vimentin level incubated for 24 hrs by densitometry analysis; format: functional, cell-based; conditions: dose 5.0 µM
NCI-H460 [13] = assay: Inhibition of DMBA-induced CYP1B1 expression level in human NCI-H460 cells at 5 uM incubated for 24 hrs; format: functional, cell-based
[14] = target: Focal adhesion kinase 1 (Homo sapiens) (UniProt Q05397); assay: Inhibition of FAK pathway in human A549/Taxol cells assessed as decrease in phosphorylated FAK level at 5 uM incubated for 24 hrs; format: cell-based
Chain of Focal adhesion kinase 1 (Homo sapiens) (Q05397 2-1052 limits assumed): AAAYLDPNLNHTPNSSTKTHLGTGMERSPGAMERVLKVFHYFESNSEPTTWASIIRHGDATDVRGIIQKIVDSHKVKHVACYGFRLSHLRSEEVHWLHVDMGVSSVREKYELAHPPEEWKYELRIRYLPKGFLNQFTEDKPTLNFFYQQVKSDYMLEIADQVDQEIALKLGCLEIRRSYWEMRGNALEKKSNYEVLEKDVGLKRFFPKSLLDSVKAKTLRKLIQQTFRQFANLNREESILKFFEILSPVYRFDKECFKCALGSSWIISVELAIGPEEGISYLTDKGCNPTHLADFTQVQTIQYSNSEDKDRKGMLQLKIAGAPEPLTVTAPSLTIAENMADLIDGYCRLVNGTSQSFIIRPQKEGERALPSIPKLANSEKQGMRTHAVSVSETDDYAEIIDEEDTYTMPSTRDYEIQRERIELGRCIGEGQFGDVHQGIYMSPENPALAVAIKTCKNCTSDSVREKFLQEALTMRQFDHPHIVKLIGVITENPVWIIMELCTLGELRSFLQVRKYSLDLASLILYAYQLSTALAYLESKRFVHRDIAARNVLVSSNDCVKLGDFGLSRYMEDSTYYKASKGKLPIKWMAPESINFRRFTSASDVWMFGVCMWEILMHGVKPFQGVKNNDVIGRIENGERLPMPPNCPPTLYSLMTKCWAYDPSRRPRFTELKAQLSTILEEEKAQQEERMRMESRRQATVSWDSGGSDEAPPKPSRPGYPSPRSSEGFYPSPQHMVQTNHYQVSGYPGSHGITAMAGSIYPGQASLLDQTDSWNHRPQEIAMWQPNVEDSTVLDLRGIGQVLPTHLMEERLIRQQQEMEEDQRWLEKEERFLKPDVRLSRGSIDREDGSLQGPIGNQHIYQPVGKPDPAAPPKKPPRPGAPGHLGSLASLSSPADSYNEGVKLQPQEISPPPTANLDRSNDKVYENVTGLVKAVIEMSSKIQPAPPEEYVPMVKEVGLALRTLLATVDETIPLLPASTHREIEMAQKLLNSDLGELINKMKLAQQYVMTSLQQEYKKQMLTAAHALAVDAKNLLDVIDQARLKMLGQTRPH

NCI-H460 [15] = assay: Upregulation of DMBA-induced CYP1B1 expression level in human NCI-H460 cells incubated for 24 hrs; format: functional, cell-based; conditions: dose 1-10 µM
A549 [16] = assay: Inhibition of DMBA-induced CYP1B1 expression level in human A549 cells at 5 uM incubated for 24 hrs; format: functional, cell-based
NCI-H460 [17] = assay: Upregulation of DMBA-induced CYP1B1 expression level in human NCI-H460 cells at 5 uM incubated for 24 hrs; format: functional, cell-based
A549/TR [18] = assay: Reversal of taxol resistance in human A549/Taxol cells assessed as increase in Rho123 accumulation at 5 uM incubated for 20 mins by multimode plate reader analysis; format: functional, cell-based
NCI-H460 [19] = assay: Inhibition of DMBA-induced CYP1B1 overexpression in human NCI-H460 cells assessed as decrease in E-cadherin level incubated for 24 hrs by densitometry analysis; format: functional, cell-based; conditions: dose 5.0 µM
A549 [20] = assay: Inhibition of DMBA-induced CYP1B1 overexpression in human A549 cells assessed as increase in FAK level incubated for 24 hrs by densitometry analysis; format: functional, cell-based; conditions: dose 5.0 µM
A549 [21] = assay: Inhibition of DMBA-induced CYP1B1 overexpression in human A549 cells assessed as effect on Snail level at 5 uM incubated for 24 hrs by densitometry analysis; format: functional, cell-based
NCI-H460 [22] = assay: Inhibition of DMBA-induced CYP1B1 overexpression in human NCI-H460 cells assessed as increase in N-cadherin level incubated for 24 hrs by densitometry analysis; format: functional, cell-based; conditions: dose 5.0 µM

`COc1cc(Nc2nc(-c3nc(-c4ccccc4F)cs3)cs2)cc(OC)c1` was tested, and the CI (A549/TR [1]) was 1.89, the Activity (A549/TR [2]) was “inactive” and the CI (A549/TR [3]) was 0.11. The IC50 (Cytochrome P450 1A1) was 347 nM, the CI (A549/TR [4]) was 0.68 and the CI (A549/TR [5]) was 0.47. The CI (A549/TR [6]) was 0.4, the inhibition (A549/Taxol) was “Active” and the inhibition (A549 [7]) was “Dose-Dependent Effect”. It also gave a CI (A549/TR [8]) of 0.55, a CI (A549/TR [9]) of 0.02 and an IC50 (Cytochrome P450 1B1) of 6.6 nM.
With `COc1cc(/C=C/c2ccc(OC)cc2OC)cc(OC)c1` the inhibition (NCI-H460 [10]) was “Dose-Dependent Effect”, the Activity (NCI-H460 [11]) was “Dose-Dependent Effect” and the inhibition (A549 [12]) was “Dose-Dependent Effect”. For the same molecule, the inhibition (NCI-H460 [13]) was “Active”, the inhibition [14] was “Active” and the Activity (NCI-H460 [15]) was “Dose-Dependent Effect”. For the same molecule, the inhibition (A549 [16]) was “Active”, the Activity (NCI-H460 [17]) was “inactive” and the Activity (A549/TR [18]) was “Active”. The inhibition (NCI-H460 [19]) was “Dose-Dependent Effect”, the inhibition (A549 [20]) was “Dose-Dependent Effect” and the inhibition (A549 [21]) was “inactive”. The inhibition (NCI-H460 [22]) was “Dose-Dependent Effect”.

— ChEMBL document CHEMBL5236635, “Structure-Based Drug Design and Synthesis of Novel N-Aryl-2,4-bithiazole-2-amine CYP1B1-Selective Inhibitors in Overcoming Taxol Resistance in A549 Cells” (J Med Chem, 2022)
